# Test results: PubChem BioAssay AID1996
# Settings: buffer; pH 7.4; 200.0 µM
row,Structure (SMILES),solubility kinetic
1,CC(=O)N/C(=N/c1nc(C)cc(C)n1)Nc1ccc(C)cc1Cl,0.2 µg/mL
2,Cn1cc([N+](=O)[O-])cc1-c1nc2ccccc2n1C,> 38.4 µg/mL
3,S=C(NCc1ccccc1)NCc1ccc(Cl)cc1,2.3 µg/mL
4,O=C(COC(=O)CC1CC2CCC1C2)NCc1ccc(Cl)cc1 (centres undefined),6.2 µg/mL
5,COC(=O)Cc1c(O)ccn(CCc2c[nH]c3ccc(OC)cc23)c1=O,> 53.5 µg/mL
6,O=C(O)CNC(=S)N(Cc1ccccc1)Cc1cccs1,> 48.1 µg/mL
7,CCOC(=O)c1c(C)nsc1NCc1ccccc1,8.5 µg/mL
8,O=C(NCc1ccccc1)c1nc2ccccc2s1,17.4 µg/mL
9,Nc1cc(S(=O)(=O)N2CCCCC2)ccc1N1CCOCC1,38.7 µg/mL
10,CCN(CC)Cc1c(O)ccc2c1O/C(=C\C=C\c1ccccc1)C2=O,42.2 µg/mL
11,CC(=O)C1=C(O)C(=O)N(Cc2ccco2)C1c1cccc(F)c1 (centres undefined),> 47.3 µg/mL
12,CC(C)(C)CC(=O)Nc1ccc(S(=O)(=O)N2CCCC2)cc1,> 48.7 µg/mL
13,COc1cc(CN2CCN(CC3CC3)CC2CCO)cc(OC)c1 (centres undefined),42.6 µg/mL
14,O=C(Nc1ccc(N2CCOCC2)nc1)c1ccccc1Cl,42 µg/mL
15,COCC(=O)NC1CC(C)(C)Cc2c1cnn2-c1ccc(F)cc1 (centres undefined),> 49.7 µg/mL
16,CSCC[C@H](NC(=O)Nc1cccc(Br)c1)C(=O)O,39.4 µg/mL
17,CC(=O)C1=C(C)N2CCN=C2S1,> 27.3 µg/mL
18,Cc1cccc(C)c1OCC(=O)Nc1ccc2c(c1)OCCO2,23.5 µg/mL
19,O=C(Nc1cc([N+](=O)[O-])ccc1O)NC1CCS(=O)(=O)C1 (centres undefined),> 47.3 µg/mL
20,CN1CCN(C(=S)NC(=O)/C=C/c2cccs2)CC1,41.9 µg/mL
21,Cc1nc(SCC(=O)NCC2CCCO2)c2c(C)c(C)sc2n1 (centres undefined),> 52.7 µg/mL
22,Cc1cccc(NC(=O)Cn2cc(C(=O)C3CC3)c3ccccc32)c1,< 0.4 µg/mL
23,COc1ccc(OC)c(N/C=C/C(=O)c2ccc(OC)c(OC)c2)c1,< 0.7 µg/mL
24,CCNc1nc(OC)nc(N(OC)S(=O)(=O)c2ccc(C)cc2)n1,> 53 µg/mL

row,Structure (SMILES),solubility kinetic
1,CCOCCCNC(=O)c1cc2c(=O)n3ccccc3nc2s1,46.4 µg/mL
2,O=C(NCC1CCCO1)c1ccc(NC(=O)c2cccc(Cl)c2)cc1 (centres undefined),2.5 µg/mL
3,C=CCOc1ccc(CNCC2CCCO2)cc1.Cl (centres undefined),> 42.6 µg/mL
4,O=C(Nc1cccnc1)c1ccc(N2CCOCC2)c([N+](=O)[O-])c1,41.2 µg/mL
5,CCOC(=O)Cc1csc(NC(=O)CCC(=O)O)n1,> 42.9 µg/mL
6,COc1ccc2c(ccc[n+]2CC(=O)c2ccccc2)c1.[Br-],> 53.7 µg/mL
7,CCOC(=O)COc1ccc(S(=O)(=O)NC2CC2)cc1,> 44.9 µg/mL
8,Cc1cccc(CN(C(=S)Nc2c(C)cccc2C)c2cccnc2)c1,16.9 µg/mL
9,COc1ccccc1CC(=O)NCc1csc(-c2cccs2)n1,46 µg/mL
10,Cc1ccccc1-c1nc(S(=O)(=O)c2ccccc2)c(NCCCN2CCOCC2)o1,44.9 µg/mL
11,Cc1ccc(OCCC(=O)OCC(=O)NC2CCCC(C)C2C)cc1 (centres undefined),15.9 µg/mL
12,COc1ccc(C(=O)CCN2CCC(C)CC2)cc1.Cl,> 44.7 µg/mL
13,COc1cc(C(=O)NC2CCCc3ccccc32)cc(OC)c1C (centres undefined),< 0.7 µg/mL
14,CC(=O)c1ccc(N2CCC(C)CC2)c(F)c1,6 µg/mL
15,CS(=O)(=O)Nc1ccc(Oc2ncccn2)cc1,> 39.8 µg/mL
16,N#C/C(=C\c1ccccc1)C(=O)N1CCC(C(N)=O)CC1,40.1 µg/mL
17,COC(=O)Cc1c(O)ccn(Cc2ccc(Cl)c(Cl)c2)c1=O,> 51.3 µg/mL
18,Cc1cc(C)cc(NC(=S)Nc2cccc3ccccc23)c1,1.1 µg/mL
19,Cc1onc(-c2ccccc2Cl)c1C(=O)OCC(=O)N1CCC(C)CC1,> 56.5 µg/mL
20,O=C1CCC(C(=O)Nc2cccc(Br)c2)N1 (centres undefined),> 42.5 µg/mL
21,CC(=O)C1=C(c2ccccc2)NC(=O)NC1c1cccs1 (centres undefined),28.2 µg/mL
22,Cc1cccc(NC(=O)C2CCCN2C(=O)NC2CCCCC2)c1 (centres undefined),3.1 µg/mL
23,CC1(C)Cc2cccc(C(=O)NCc3ccco3)c2O1,32.9 µg/mL
24,Cc1ccccc1C(=O)NCC(=O)Nc1ccccc1C(F)(F)F,> 50.4 µg/mL

row,Structure (SMILES),solubility kinetic
1,O=C(NCCC(=O)N1CCN(C(=O)c2ccco2)CC1)c1ccccc1Cl,> 58.5 µg/mL
2,O=C(Cc1ccccc1)NC1CCSc2ccccc21 (centres undefined),11.7 µg/mL
3,O=C(Nc1cccc(S(=O)(=O)NC2=NCCC2)c1)c1ccc(F)cc1F,25.8 µg/mL
4,C/C(=N\N=C(N)N)c1ccccc1,> 26.4 µg/mL
5,O=C(Nc1ccccc1F)c1ccc(CN2CCN(c3ccccc3)CC2)cc1,4.1 µg/mL
6,O=S(=O)(Nc1ccon1)c1ccc(Br)s1,31.3 µg/mL
7,Cc1ccc([N+](=O)[O-])cc1NC(=O)c1ccccc1,8.5 µg/mL
8,CC(C)(C)c1ccc(/C=C(\C#N)C(=O)NCCN2CCOCC2)cc1,30.9 µg/mL
9,CNS(=O)(=O)Cc1ccc2[nH]cc(CCN(C)C)c2c1,40.3 µg/mL
10,O=C(Nc1c(F)cccc1F)C(c1ccccc1)c1ccccc1,< 0.7 µg/mL
11,CS(=O)(=O)c1ccc(NCC2CCCO2)c([N+](=O)[O-])c1 (centres undefined),> 45 µg/mL
12,Cc1cc(CSc2ccccc2C(=O)O)on1,> 37.4 µg/mL
13,CSc1nc(C)c(C(=O)C[n+]2ccccc2C)cc1C#N.[Br-],> 56.7 µg/mL
14,COc1ccc(Cl)cc1NC(=O)Nc1cc(C)on1,0.9 µg/mL
15,O=C(CN1CCCCCC1)Nc1cc([N+](=O)[O-])ccc1Cl,22.6 µg/mL
16,COc1ccc(S(=O)(=O)NCCCN2CCCC2=O)c(OC)c1,> 51.4 µg/mL
17,Cc1cc(Nc2ccc(N(C)C)cc2)n2ncnc2n1,> 40.2 µg/mL
18,O=C(NCCCN1CCCC1=O)c1cc(-c2ccc(F)cc2)nc2ccccc12,> 58.7 µg/mL
19,CCCC(=O)Oc1ccc(C2NC(=O)c3ccccc3O2)cc1 (centres undefined),< 0.7 µg/mL
20,COc1cccc(NC(=O)CN2C(=O)NC3(CCCCCC3)C2=O)c1,> 51.8 µg/mL
21,CCCC(=O)NC(=S)Nc1cccc(Cl)c1N1CCCC1,0.5 µg/mL
22,Cc1ccc(OC(=O)Nc2ccccc2)cc1,17.8 µg/mL
23,O=c1[nH]c2c(Br)cnc([N+](=O)[O-])c2[nH]1,> 38.9 µg/mL
24,CCOc1ccc(Cl)cc1S(=O)(=O)N1CCC(C(=O)NCc2ccco2)CC1,3.6 µg/mL

row,Structure (SMILES),solubility kinetic
1,CC(=O)Nc1ccc(NC(=O)C2CC(=O)N(C(C)C)C2)cc1 (centres undefined),43.4 µg/mL
2,COc1cccc(CNC(=O)CCCc2c[nH]c3ccccc23)c1,47 µg/mL
3,CN(C)c1cc(-c2ccc(C#N)cc2)oc(=O)c1Cl,2.7 µg/mL
4,C=CCn1c(O)c(/C(C)=N/N2CCCCCC2)c(=O)[nH]c1=O,> 46 µg/mL
5,CC(=O)c1c(OCC(=O)N(C)C2CCCCC2)ccc2c(C)cc(=O)oc12,> 55.7 µg/mL
6,O=C(c1ccccc1NS(=O)(=O)c1ccc(F)cc1F)N1CCCCC1,> 57.1 µg/mL
7,O=C(Nc1ccc(F)cc1)NC1CCCCCCC1,1.6 µg/mL
8,COc1cc2c(cc1OC)C(c1ccccc1F)NCC2 (centres undefined),> 43.1 µg/mL
9,CC(NC(=O)C(C)N1C(=O)c2ccccc2C1=O)c1ccccc1 (centres undefined),> 48.4 µg/mL
10,CCN1CCN(C(=O)c2cc(-c3ccc(Cl)s3)nc3ccccc23)CC1,53.5 µg/mL
11,c1cc2c3c(cccc3c1)NC(c1ccc3c(c1)OCO3)N2,9.5 µg/mL
12,CCOC(=O)/C(=C/c1ccc(OC(=O)c2ccncc2)cc1)C(C)=O,41.8 µg/mL
13,CC(=O)N(Cc1ccccc1)Cc1nc2sc(C)c(C)c2c(=O)[nH]1,47.5 µg/mL
14,CCC1(C)Cc2c(C#N)c(N)n(-c3ccccc3)c(=S)c2CO1 (centres undefined),26.4 µg/mL
15,CCc1nnc(NC(=O)c2ccc(C)o2)s1,> 35.6 µg/mL
16,Cc1cccc(CNS(=O)(=O)c2csc(C(N)=O)c2)c1,> 46.6 µg/mL
17,Cc1ccc(NC(=O)Nc2cnc3ccccc3c2)cc1,0.3 µg/mL
18,COc1ccc(NC(=S)N2CCCCC2c2cccnc2)cc1 (centres undefined),49 µg/mL
19,S=C(Nc1cccnc1)Nc1ccccc1Br,> 46.2 µg/mL
20,COC(=O)CCC(=O)Nc1nccs1,> 32.1 µg/mL
21,Cc1cccn2c(=O)c3cc(C(=O)NC4CCCC4)sc3nc12,4.9 µg/mL
22,CC(=O)Nc1ccc(NCc2ccc(C)s2)cc1,> 39.1 µg/mL
23,Cc1nc(SCC(=O)N2CCCC2=O)nc(C)c1C,> 41.9 µg/mL
24,CCCCNC(=S)Nc1ccc2[nH]c(=O)[nH]c2c1,18.4 µg/mL

row,Structure (SMILES),solubility kinetic
1,CCc1ccc2[nH]c(C(=O)Nc3ccc(F)cc3Br)cc2c1,0.9 µg/mL
2,CN1CCN(S(=O)(=O)c2cc([N+](=O)[O-])ccc2Cl)CC1,> 48 µg/mL
3,Cc1cc(C(=O)NCc2cccc(Cl)c2)c2ccccc2n1,5.3 µg/mL
4,COCCNC(=O)COC(=O)C1=Cc2ccccc2OC1,> 43.7 µg/mL
5,O=C(O)c1ccccc1NC(=O)C1C2CCC(O2)C1C(=O)O (centres undefined),> 45.8 µg/mL
6,COc1ccc(OC(=O)c2cnc3n(c2=O)CCS3)cc1,35 µg/mL
7,O=[N+]([O-])c1ccc(N2CCN(c3ccccc3)CC2)nc1,0.6 µg/mL
8,O=C(Cn1cnc2ccccc21)c1ccc(Br)cc1,40 µg/mL
9,CC(=O)N(CN1C(=O)C2C3C=CC(C3)C2C1=O)c1cccc(Cl)c1 (centres undefined),50.4 µg/mL
10,COc1ccc(NC(=O)Nc2ccc([N+](=O)[O-])cc2)cn1,0.9 µg/mL
11,Cn1c(=O)oc2cc(S(=O)(=O)Nc3ccccc3F)ccc21,15.6 µg/mL
12,Cc1ccc2c(c1)c(-c1csc(N)n1)c(C)n2C,13.4 µg/mL
13,CCOC(=O)c1sc(NC(=O)CC)c(C#N)c1C,1.4 µg/mL
14,CC1CCN(C(=S)NC(=O)c2ccc(C(C)(C)C)cc2)CC1,3.1 µg/mL
15,O=C(CN1N=C(c2ccccc2)CCC1=O)NCc1cccs1,> 49.1 µg/mL
16,CCOc1ccc(N2CC(C(=O)N3CCCCC3)CC2=O)cc1 (centres undefined),46.4 µg/mL
17,CC1(C)Cc2ccccc2/C(=C/C(=O)c2ccccc2)N1,< 0.6 µg/mL
18,CCN1C(=O)CC(N2CCC(C(=O)N3CCCCCC3)CC2)C1=O (centres undefined),> 50.3 µg/mL
19,CC(C)N(Cc1nc(-c2ccccc2)no1)C(=O)C(Cl)(Cl)Cl,5.9 µg/mL
20,O=C(O)C(=O)O.OC1(c2ccccc2)CCNC2CCCCC21 (centres undefined),> 48.2 µg/mL
21,CN(Cc1ccccc1)C(=O)COC(=O)c1cc(=O)c2ccccc2o1,> 52.7 µg/mL
22,CCOc1ccccc1NC(=O)NC1Cc2ccccc2C1,< 0.3 µg/mL
23,COc1ccc(CC(=O)Nc2cccc3c2CCCC3)cc1,1.8 µg/mL
